Measured values from patent US20230026259A1, “CA2 COMPOSITIONS AND METHODS FOR TUNABLE REGULATION” (Obsidian Therapeutics, Inc., priority 2019, published 2023).

Assays:
[1] = tested on: NIH3T3 cells; experiment: Dose response of saturation library constructs to Acetazolamide or Celecoxib, GFP MFI by FACS; assay type: cell-based; conditions: Acetazolamide vs Celecoxib, 24 hours
Description: The MFI values obtained with Acetazolamide were much higher than the MFIs obtained with Celecoxib treatment.

[2] = tested on: Activated T cells from human donor; experiment: Cell surface CAR expression of CA2 regulated CAR constructs (CD19-Fc staining); assay type: cell-based; conditions: T cells, 10 μM ligand overnight, day 7 and 9
Protocol: CA2 DD described herein were operably linked to CARs to generate tunable CAR constructs. Activated T cells from human donor were transduced with 10 μL of lentivirus for indicated constructs. […] Cell surface CAR expression was detected the following day by staining the cells with 10 ug/mL CD19-Fc followed by an anti-human-BV421 conjugated secondary antibody. Histograms were plotted from a live cell gate. Similar experiments were also performed at day 8 and the cells were harvested at day 9. The data are shown in Table 20 as percentage CAR positive cells. The stabilization ratio was also calculated and is included in Table 20 as SR.
Activated T cells from human donor were transduced with 10 μL of lentivirus for indicated constructs. […] Cell surface CAR expression was detected the following day by staining the cells with 10 ug/mL CD19-Fc followed by an anti-human-BV421 conjugated secondary antibody. The percent of ligand induced CAR+ cells are plotted from a live cell gate relative to vehicle treated negative control cells.

[3] = tested on: human primary T cells; experiment: IL15-dependent expansion: T cell numbers and CD4/CD8 ratio by flow cytometry; assay type: cell-based; conditions: continuous Acetazolamide in culture, 10 days
Protocol: To test IL15-dependent expansion, beads were removed on day 10 and cells were washed. […] The T cell numbers (Table 30) and the change in CD4/CD8 ratio (Table 31) were determined by flow cytometry.

[4] = tested on: T cells; experiment: CD40L expression of CA2 regulated CD40L constructs in T cells by FACS (dose response, time course); assay type: cell-based; conditions: 24 hours
Description: CD40L constructs regulated by Carbonic anhydrase DDs were generated and cloned into lentiviral vectors. Purified T cells were thawed and cultured with aCD3 aCD28 Dynabeads (in the ratio of 3 beads to 1 T cell).
The constructs were transduced in T cells the next day. […]

[5] = Plasma concentration of acetazolamide after single and repeated oral doses; assay type: in vivo, mice; conditions: oral 200 mg/kg, up to 100 hr
[6] = Body weights after repeated daily doses of acetazolamide
Protocol: Body weights were measured for up to 12 days post daily repeated doses on days 0-4 and 8-11 (data not shown).
Dose responsiveness of OT-002175 was tested by measuring total flux in mice receiving repeated ligand dosing for up to 32 days post tumor implant (data not shown).

[7] = CD4+ T cells with OT-001990, Acetazolamide 0.01 μM
[8] = CD4+ T cells with OT-001990, Acetazolamide 0.2 μM
[9] = CD4+ T cells with OT-001990, Acetazolamide 0.8 μM
[10] = CD4+ T cells with OT-001990, Acetazolamide 3.1 μM
[11] = CD4+ T cells with OT-001990, Acetazolamide 12.5 μM
[12] = CD4+ T cells with OT-001990, Acetazolamide 50 μM
[13] = CD8+ T cells with OT-001990, Acetazolamide 0.01 μM
[14] = CD8+ T cells with OT-001990, Acetazolamide 0.05 μM
[15] = CD8+ T cells with OT-001990, Acetazolamide 0.2 μM
[16] = CD8+ T cells with OT-001990, Acetazolamide 0.8 μM
[17] = CD8+ T cells with OT-001990, Acetazolamide 3.1 μM
[18] = CD8+ T cells with OT-001990, Acetazolamide 12.5 μM
[19] = CD8+ T cells with OT-001990, Acetazolamide 50 μM

CC(=O)Nc1nnc(S(N)(=O)=O)s1 [Acetazolamide, reference compound]
MFI values obtained with one ligand compared with the other [1]: much higher
CAR regulation compared between ligands [2]: Greater CAR regulation
T cell expansion [3]: 3.6 fold
CD40L MFI [4, 7]: 112
Percentage CD40L positive cells [4, 7]: 4.13%
Percentage CD40L positive cells ([4]; CD4+ T cells with OT-001990, Acetazolamide 0.05 μM): 5.44%
CD40L MFI [4, 8]: 185
Percentage CD40L positive cells [4, 8]: 10.3%
CD40L MFI [4, 9]: 481
Percentage CD40L positive cells [4, 9]: 45.6%
CD40L MFI [4, 10]: 840
Percentage CD40L positive cells [4, 10]: 69.3%
CD40L MFI [4, 11]: 2783
Percentage CD40L positive cells [4, 11]: 90.3%
CD40L MFI [4, 12]: 3728
Percentage CD40L positive cells [4, 12]: 91.1%
CD40L MFI [4, 13]: 105
Percentage CD40L positive cells [4, 13]: 0.59%
CD40L MFI [4, 14]: 104
Percentage CD40L positive cells [4, 14]: 0.44%
CD40L MFI [4, 15]: 136
Percentage CD40L positive cells [4, 15]: 1.48%
CD40L MFI [4, 16]: 307
Percentage CD40L positive cells [4, 16]: 25.2%
CD40L MFI [4, 17]: 380
Percentage CD40L positive cells [4, 17]: 41.2%
CD40L MFI [4, 18]: 1599
Percentage CD40L positive cells [4, 18]: 77.2%
CD40L MFI [4, 19]: 2184
Percentage CD40L positive cells [4, 19]: 80.7%
daily 1 hr Cmax values after repeated doses [5]: do not elevate daily 1 hr Cmax values
effects on body weight in efficacy study ([6]; 30, 100 and 200 mg/kg acetazolamide): comparable effects on body weight
body weight changes from dosing ([6]; oral 200 mg/kg, daily repeated doses on days 0-4 and 8-11): begin to level off by the end of the first week of daily doses
